The record followed here is patent US4476133A, “Triazolo-4,1-benzoxazepines having CNS activity” (Shionogi & Co., Ltd., priority 1980, dated 1984).

pKi: −log10 of the molar value. Bounds are passed on as bounds.

One data set deals with tonic convulsion. Nature of the data set: antipentylenetetrazole test indicating anticonvulsive activities. The following applies: Mus musculus; oral, 60 min before s.c. pentylenetetrazole 125 mg/kg; mortality observed for 2 h; DS male mice. The data set is classed as in vivo. As for the experimental part: In determination of the antipentylenetetrazole activity, four test lots consisting of 4×10 DS male mice were employed. Within 15 minutes after single subcutaneous injection of 125 mg/kg (body weight of mouse) of pentylenetetrazole (a kind of convulsion reagent given as an aqueous solution), the mice were attacked by tonic convulsion which killed them. Test compound was orally administered 60 minutes before said s.c. injection. Observation was made for two hours postinjection of pentylenetetrazole. Anticonvulsant activity was determined in mortality percentage between 100% (all the mice dead) and 0% (all the mice alive). Test results are shown by preventive ED50 value (Effective Doses in mg/kg, a theoretical level of 50% alive and 50% dead)[Goodman, et al.: J. Pharmacol., 108, 168 (1953)].

A further data set in a line: acute toxicity. Particulars: mouse, in vivo; oral; DS infant male mice, 20 to 23 g; observed 72 hours; Bliss method. As for the experimental part: Test compounds were orally administered to DS infant male mice with four toxic doses. For each dose 10 mice were used, their body weights ranging from 20 to 23 grams. […] Mortality was calculated by the Bliss method [Bliss: Ann. Appln. Biol., 23, 134-307 (1935); Quant. J. Pharmacol., 11, 192 (1938)].

Another data set addresses benzodiazepine receptors. Nature of the data set: radio receptor assay using receptors extracted from brains of rats and 3H-diazepam. Format: binding. The following applies: receptors extracted from rat brains.

By ED50 is commonly meant the dose that gives a 50% effect, or the effect in half of the subjects. The low end stands for greater potency, the high end for weaker potency. Broadly, the LD50 is the dose at which mortality reaches 50%. Read a low LD50 as a more toxic substance. As a reminder, the pKi is the Ki on a negative log10 scale, so that one unit is a factor of ten.

In the data set on tonic convulsion, `CC(=O)OCc1nnc2n1-c1ccc(Cl)cc1C(c1ccccc1Cl)OC2` (stereo not drawn) [Compound 4] registered a 50% effective dose (ED50) of 1.2 mg/kg. Moreover, the LD50 at 72 h in “acute toxicity” is > 1000 mg/kg.
In the data set on tonic convulsion, `CN1C(=O)CN=C(c2ccccc2)c2cc(Cl)ccc21` [Diazepam, reference compound] gave an ED50 of 1.2 mg/kg.
In turn, `CN(C)Cc1nnc2n1-c1ccc(Cl)cc1C(c1ccccc1Cl)OC2` (stereo not drawn) [Compound 8] had an ED50 with tonic convulsion of 1.02 mg/kg. Also, in “acute toxicity”, the LD50 at 72 h is > 1000 mg/kg.
As to `Cc1nnc2n1-c1ccc(Cl)cc1C(c1ccccc1Cl)OC2C` (stereo not drawn) [Compound 13], the ED50 with tonic convulsion came to 1.19 mg/kg. The 50% lethal dose (LD50) at 72 h in the data set “acute toxicity” is > 1000 mg/kg.
The corresponding values for `CC(C)OCc1nnc2n1-c1ccc(Cl)cc1C(c1ccccc1Cl)OC2` (stereo not drawn) [Compound 10] are 2.42 mg/kg and > 1000 mg/kg.
For `CC(=O)OCCc1nnc2n1-c1ccc(Cl)cc1C(c1ccccc1Cl)OC2C` (stereo not drawn) [Compound 14], in that order: 1.67 mg/kg and > 1000 mg/kg.
In the data set with tonic convulsion, `Cn1nc2n(c1=O)-c1ccc(Cl)cc1C(c1ccccc1Cl)OC2` (stereo not drawn) [Compound 12] showed an ED50 of 3.46 mg/kg. The LD50 at 72 h in “acute toxicity” is > 1000 mg/kg.
For `COCc1nnc2n1-c1ccc(Cl)cc1C(c1ccccc1Cl)OC2` (stereo not drawn) [Compound 3], in that order: 2.38 mg/kg and > 1000 mg/kg.
For `Clc1ccc2c(c1)C(c1ccccc1Cl)OCc1nnc(CN3CCCC3)n1-2` (stereo not drawn) [Compound 9], in that order: 4.63 mg/kg and > 1000 mg/kg.
On to `CN1CCN=C(c2ccccc2)c2cc(Cl)ccc21` [Medazepam, reference compound], for which the median lethal dose (LD50) at 72 h in the data set “acute toxicity” is > 1000 mg/kg.
For `Clc1ccc2c(c1)C(c1ccccc1Cl)OCc1nnc(CN3CCOCC3)n1-2` (stereo not drawn) [Compound 5], the median effective dose (ED50) with tonic convulsion was determined as 3.81 mg/kg. In addition, the LD50 at 72 h in the data set “acute toxicity” was > 1000 mg/kg.
`OCc1nnc2n1-c1ccc(Cl)cc1C(c1ccccc1Cl)OC2` (stereo not drawn) [1-Hydroxymethyl-6-(2-chlorophenyl)-8-chloro-4H,6H-(1,2,4)triazolo[4,3-a][4,1]benzoxazepine]: at benzodiazepine receptors, the negative-log Ki (pKi) was 8.46.
As for `CCOCc1nnc2n1-c1ccc(Cl)cc1C(c1ccccc1Cl)OC2` (stereo not drawn) [Compound 7], it took a dose of 2.13 mg/kg to reach the 50% effect level in the data set with tonic convulsion (ED50). Further, in “acute toxicity”, the LD50 at 72 h was > 1000 mg/kg.
For `Clc1ccc2c(c1)C(c1ccccc1Cl)OCc1nncn1-2` (stereo not drawn) [Compound 1], in that order: 1.25 mg/kg and > 1000 mg/kg.
The corresponding values for `Clc1ccc2c(c1)C(c1ccccc1Cl)OCc1nnc(N3CCOCC3)n1-2` (stereo not drawn) [Compound 2] are 4.26 mg/kg and > 1000 mg/kg.
The corresponding values for `OCc1nnc2n1-c1ccc(Cl)cc1C(c1ccccc1Cl)OC2` (stereo not drawn) [Compound 6] are 3.25 mg/kg and > 1000 mg/kg.
On to `Cc1nnc2n1-c1ccc(Cl)cc1C(c1ccccc1C(F)(F)F)OC2` (stereo not drawn) [Compound 15], for which it took a dose of 1.41 mg/kg to reach the 50% effect level in the data set on tonic convulsion (ED50). Besides, the LD50 at 72 h in the data set “acute toxicity” is > 1000 mg/kg.
In turn, `CCCOCc1nnc2n1-c1ccc(Cl)cc1C(c1ccccc1Cl)OC2` (stereo not drawn) [Compound 11] registered a 50% effective dose (ED50) in the data set with tonic convulsion of 3.09 mg/kg. The LD50 at 72 h in the data set “acute toxicity” is > 1000 mg/kg.
